Article PMC5636972 (Cell Death & Disease, 2017)

Columns and labels:
Colo205 cells = assay: MTT cell viability assay, Colo205; assay type: cell-based
Text: (§1) To evaluate the potency of I-Trp in killing these cancer cell lines, we performed MTT assay to determine the cell viability of target cells. […] The cancer cells with higher expression levels of CCT-β were indeed more sensitive to I-Trp.

MCF-10A cells = assay: MTT cell viability assay, non-tumorigenic MCF-10A; assay type: cell-based; conditions: for EC50: MTT, 72 h, normal cells
Text: as §1

MKN-45 cells = assay: MTT cell viability assay, MKN-45; assay type: cell-based
Text: as §1

HCT116 cells = assay: MTT cell viability assay, HCT116; assay type: cell-based
Text: as §1

MDA-MB-231 cells [1] = assay: MTT cell viability assay, MDA-MB-231; assay type: cell-based; conditions: for killing these cancer cells (in words): MDA-MB-231, MKN-45, HCT116, Colo205, Table 1; for EC50: MTT, 72 h
Text: as §1

I-Trp-induced apoptosis = assay: Reversal of I-Trp-induced apoptosis by pretreatment with inhibitors (sub-G0 flow cytometry); assay type: cell-based
Protocol: Figure 4 Effect of I-Trp on the levels of intracellular Ca^2+. (a) I-Trp induces intracellular Ca^2+ release in a concentration-dependent manner. Cells were pretreated with BAPTA/AM (negative control) for 1 h, with MCN-A-343 (positive control) or different concentrations of I-Trp and incubated with Fluo-4 for 40 min. After incubation, the fluorescence signal was immediately measured using a fluorescence microplate reader by excitation at 509 nm and emission at 516 nm. (b) Cells were pre-incubated with BAPTA/AM (1–20 μM) for 1 h prior to treatment with EC50 concentrations of I-Trp for 72 h. Cell apoptosis was assessed via PI-based flow cytometric analysis. Data are expressed as mean±S.D. ***P<0.001, significant difference as compared to control. ^#P<0.05, ^##P<0.01 and ^###P<0.001 significant difference as compared to I-Trp alone
Next, we used ERK1/2 inhibitor U0126,[33], [34] JNK inhibitor SP600125,[35], [36] and p38 inhibitor SB203580[37] to confirm the involvement of MAPKs in I-Trp-induced apoptosis. We pretreated the cancer cell lines with 0.5–10 μM U0126, 1–10 μM SP600125, or 1–10 μM SB203580 for 1 h and subsequently treated them with I-Trp to detect the sub-G0 cell accumulation by flow cytometry.
(§2) Cells (3 × 10^5) were fixed in 70% ice-cold EtOH for 30 min at RT. Cells were washed with PBS once and then incubated with propidium iodide (PI) staining solution (PBS containing 0.1 % BSA, 0.1% RNase A, and […] PI) for 30 min at RT in the dark. After the incubation, the cells were analyzed by flow cytometry to assess their DNA content.

[2] = system: CCT-β : β-tubulin complex; assay: co-IP with CCT-β antibody, immunoblot for β-tubulin; assay type: cell-based; conditions: 5 or 10 μM, 6 h; MDA-MB-231, MKN-45, HCT116, Colo205 lysates
Protocol: With GADPH as a protein-loading control, we also confirmed that the input of β-tubulin and CCT-β in the experiments was equal with or without treatment. […] After 24–48 h of I-Trp treatment, cells underwent apoptosis to trigger proteasome activity for cellular protein degradation as reported previously.[14]
(a) Using CCT-β antibody to co-IP the complex, and then detecting the quantity of trapped β-tubulin with western blotting using β-tubulin antibody. […] The cancer cells were treated with I-Trp for the designated time periods. Cell lysates were examined using the proteasome activity assay. (c) The changed expression levels of ER stress protein markers upon I-Trp treatment
The cell lysates (100 μg) were boiled for 5 min in SDS sample buffer (62.5 mM Tris-HCl pH 6.7, 1.25% SDS, 12.5% glycerol, and 2.5% β-mercaptoethanol), and the proteins were separated via SDS-PAGE. For western blotting, proteins were transferred onto a PVDF membrane (Millipore, MA, USA) and incubated with different antibody agents. After incubation with horseradish peroxidase (HRP)-conjugated secondary antibody, immuno-reactive protein bands were visualized using the enhanced chemiluminescence (ECL) system (Amersham Bioscience, Tokyo, Japan).

microtubules = system: microtubules; design: method as in PMID 19690144; conditions: cited from earlier work
caspases = assay: Caspase activity assay (fluorescent substrates); assay type: cell-based; conditions: EC50 concentrations, 72 h, the four cancer cell lines
Protocol: The caspase activity assay was performed according to the manufacturer’s guidelines (BioVision). Briefly, cell lysates (200 μg) were diluted in 50 μl of cell lysis buffer (supplied by the kit). Equal volumes of the 2 × reaction buffer (supplied by the kit) containing 10 mM DTT were added to the cell lysates. Subsequently, 50 μM of fluorescent dye-conjugated caspase substrate was individually added to the designated caspase activity assay. After a 2-h incubation, free fluorescent dyes in the solution were read in a fluorimeter equipped with a 385-nm excitation filter and 510-nm emission filter.

intracellular Ca^2+ = assay: Fluo-4 intracellular Ca2+ assay; assay type: cell-based; conditions: the four cancer cell lines, Fluo-4, 40 min
Protocol: We used a Fluo-4 direct calcium assay kit from Invitrogen (catalog item F10471) to measure the intracellular calcium response to I-Trp in target cancer cell lines. Cancer cell lines were cultured in 96-well plates with media containing 10% FBS. After reaching confluence, cancer cells were treated with MCN-A-343 (positive control), BATPA (negative control), or I-Trp and incubated with Fluo-4 direct calcium reagent loading solution for 40 min. After incubation, the fluorescence signal was immediately measured using a fluorescence microplate reader at excitation and emission of 509 and 516 nm, respectively.

β-tubulin = system: β-tubulin; design: method as in PMID 19690144; conditions: cited from earlier work
proteasome activity = assay: Proteasome activity assay in cell lysates; assay type: cell-based
Protocol: After being treated with I-Trp for designated time periods, cells were collected and resuspended in cell lysis buffer (BioVision). Aliquots of cell lysates (100 μg) were incubated with 1 μM of fluorescent proteasome substrate (BioVision) for 30 min at 37 °C. The fluorescent intensity was read using a fluorimeter with an exciting wavelength at 355 nm and emission wavelength at […] and presented as relative proteasome activity.

[3] = system: MDA-MB-231, MKN-45, HCT116, and Colo205 cells; assay: PI-based flow cytometric sub-G0 apoptosis assessment; assay type: cell-based; conditions: 72 h, different concentrations, the four cancer cell lines
Protocol: as §2

MDA-MB-231 cells [4] = assay: as above; assay type: cell-based; conditions: MDA-MB-231 with CCT-β shRNA clones, 10 μM, 72 h
Protocol: as §2

CCT-β and β-tubulin mRNA = assay: Real time qPCR for CCT-β and β-tubulin mRNA; assay type: cell-based; conditions: HCT116, MKN-45, MDA-MB-231, Colo205
Text: Mean values ± S.D. from three independent samples are shown. The RT-PCR experiments reveal that the mRNA levels of CCT-β and β-tubulin were not changed after I-Trp treatment in the tested cancer cells.

[5] = system: MDA-MB-231, MKN-45, HCT116, and Colo205 cells; assay: Long-term colony formation assay; assay type: cell-based; conditions: 0.31 to 2.5 μM, 7 days
Text: Next, we investigated the long-term effect of I-Trp on proliferation of the target cells using the colony formation assay.

| Compound | EC50 (Colo205 cells; 72 h) [µM] | EC50 (MKN-45 cells; 72 h) [µM] | EC50 (HCT116 cells; 72 h) [µM] | EC50 (MDA-MB-231 cells [1]) [µM] | EC50 (MCF-10A cells) [µM] | also measured |
| --- | --- | --- | --- | --- | --- | --- |
| COC(=O)C1Cc2c([nH]c3ccccc23)C(c2ccccc2)N1C(=O)CCl (stereo not drawn) [Compound 3] |  |  |  |  |  | EC50 (Colo205 cells; Homo sapiens, COLO 205, 72 h): 8.1 µM; EC50 (MCF-10A cells; Homo sapiens, MCF-10A): > 20 µM; EC50 (MKN-45 cells; Homo sapiens, MKN-45, 72 h): 4.7 µM; EC50 (HCT116 cells; Homo sapiens, HCT-116, 72 h): 3.3 µM; EC50 (MDA-MB-231 cells [1]; Homo sapiens, MDA-MB-231): 2.7 µM; killing these cancer cells (in words) (MDA-MB-231 cells [1]): effectively killed cancer cells |
| COC(=O)C1Cc2c([nH]c3ccccc23)C(c2ccccc2)N1C(=O)CI (stereo not drawn) [Compound 4] |  |  |  |  |  | EC50 (Colo205 cells; Homo sapiens, COLO 205, 72 h): 0.99 µM; EC50 (MCF-10A cells; Homo sapiens, MCF-10A): ~20 µM; toxicity relative to doxorubicin on MCF-10A (MCF-10A cells; MCF-10A): significantly less (~fivefold) toxic compared to doxorubicin; EC50 (MKN-45 cells; Homo sapiens, MKN-45, 72 h): 1.6 µM; EC50 (HCT116 cells; Homo sapiens, HCT-116, 72 h): 0.54 µM; EC50 (MDA-MB-231 cells [1]; Homo sapiens, MDA-MB-231): 0.59 µM; potency relative to doxorubicin (MDA-MB-231 cells [1]; cancer cell lines of Table 1): slightly less (~twofold) potent than doxorubicin |
| N#CC(=C(/N)Sc1ccccc1N)/C(C#N)=C(/N)Sc1ccccc1N [Compound U0126] |  |  |  |  |  | reversal of I-Trp-induced apoptosis (I-Trp-induced apoptosis; MKN-45 cells, 0.5–10 μM pretreatment 1 h): could not reverse the I-Trp-induced apoptosis |
| COc1cccc2c1C(=O)c1c(O)c3c(c(O)c1C2=O)C[C@@](O)(C(=O)CO)C[C@@H]3O[C@H]1C[C@H](N)[C@H](O)[C@H](C)O1 [Doxorubicin, reference compound] |  |  |  |  |  | EC50 (Colo205 cells; Homo sapiens, COLO 205, 72 h): 0.5 µM; EC50 (MCF-10A cells; Homo sapiens, MCF-10A): 3.8 µM; EC50 (MKN-45 cells; Homo sapiens, MKN-45, 72 h): 0.24 µM; EC50 (HCT116 cells; Homo sapiens, HCT-116, 72 h): 0.26 µM; EC50 (MDA-MB-231 cells [1]; Homo sapiens, MDA-MB-231): 0.46 µM |
| COC(=O)[C@@H](Cc1c[nH]c2ccccc12)NC(=O)CI [I-Trp] | 0.9 | 1.27 | 0.88 | 2.5 | > 20 | disruption of the CCT-β : β-tubulin complex (trapped β-tubulin) [2]: disrupted the CCT-β : β-tubulin complex; effect on polymerization/depolymerization of microtubules (microtubules): does not affect the polymerization/depolymerization of microtubules; activities of caspases-2 to -9 (caspases): enhanced; intracellular Ca^2+ mobilization (intracellular Ca^2+): induced the intracellular Ca^2+ mobilization in a dose-dependent manner; covalent modification of β-tubulin (β-tubulin): alkylate Cys^354 of β-tubulin; toxicity to MCF-10A (in words) (MCF-10A cells; MCF-10A): non-toxic; proteasome activities (proteasome activity; MDA-MB-231 cells): less apparent; proteasome activities (proteasome activity; MKN-45, HCT116, and Colo205 cells): elevated in an I-Trp dose-dependent manner; sub-G0 cell accumulation [3]: dose-dependent sub-G0 cell accumulation; cell death (sub-G0) after knockdown of CCT-β (MDA-MB-231 cells [4]): significantly (P<0.001) reduced cell death from I-Trp exposure; mRNA levels of CCT-β and β-tubulin (CCT-β and β-tubulin mRNA): not changed; colony formation [5]: formed more diffuse or smaller colonies |
| C[S+]([O-])c1ccc(-c2nc(-c3ccncc3)c(-c3ccc(F)cc3)[nH]2)cc1 (stereo not drawn) [SB203580] |  |  |  |  |  | reversal of I-Trp-induced apoptosis (I-Trp-induced apoptosis; 1–10 μM pretreatment 1 h, the cancer cell lines): reduced the percentage of I-Trp-induced apoptotic cells |
| Oc1c2ccccc2c2c3c(cccc13)N=N2 [SP600125] |  |  |  |  |  | reversal of I-Trp-induced apoptosis (I-Trp-induced apoptosis; MDA-MB-231 and HCT116 cells, 1–10 μM pretreatment 1 h): could not reverse I-Trp-induced apoptosis |

The next lines start with results.

| EC50 (Colo205 cells; 72 h) [µM] | EC50 (MKN-45 cells; 72 h) [µM] | EC50 (HCT116 cells; 72 h) [µM] | EC50 (MDA-MB-231 cells [1]) [µM] | Compound | EC50 (MCF-10A cells) [µM] | also measured |
| --- | --- | --- | --- | --- | --- | --- |
| 1.6 | 2.5 | 1.1 | 3.75 | COC(=O)C(Cc1c[nH]c2ccccc12)NC(=O)CBr (stereo not drawn) [Compound 1b] | > 20 | killing these cancer cells (in words) (MDA-MB-231 cells [1]): almost equipotent as I-Trp (1a) |
| > 20 | > 20 | > 20 | 19.5 | COC(=O)C(Cc1c[nH]c2ccccc12)NC(=O)CCl (stereo not drawn) [Compound 1c] | > 20 | killing these cancer cells (in words) (MDA-MB-231 cells [1]): mostly inactive |
| > 20 | > 20 | > 20 | > 20 | COC(=O)C(Cc1c[nH]c2ccccc12)NC(=O)C(Cl)Cl (stereo not drawn) [Compound 1d] | > 20 |  |
| 15.9 | 14.1 | 20.9 | > 20 | COC(=O)C(Cc1c[nH]c2ccccc12)NC(=O)C[N+](=O)[O-] (stereo not drawn) [Compound 1e] | > 20 |  |
| > 20 | > 20 | > 20 | > 20 | COC(=O)C(Cc1c[nH]c2ccccc12)NC(=O)CC(F)(F)F (stereo not drawn) [Compound 1f] | > 20 |  |
| > 20 | > 20 | > 20 | > 20 | COC(=O)C(Cc1c[nH]c2ccccc12)NC(=O)C(F)(F)F (stereo not drawn) [Compound 1g] | > 20 |  |
| > 20 | > 20 | > 20 | > 20 | COC(=O)C(Cc1c[nH]c2ccccc12)NC(=O)CC#N (stereo not drawn) [Compound 1h] | > 20 |  |
